From patent publication US8536332B2, “Modulating signal transduction pathways with substituted pyridol [2,3-b] pyrazines” (Aeterna Zentaris GmbH, priority 2007, dated 2013)

Columns and labels:
MDA-MB468 = assay: XTT assay, anti-proliferative activity, MDA-MB468; type: cell-based; settings: Homo sapiens, MDA-MB-468; 45 h incubation
Method: (§1) The principle of this test is based on the intracellular reduction of the tetrazolium dye XTT (sodium 3′-[1-(phenylaminocarbonyl)-3,4-tetrazolium]bis(4-methoxy-6-nitro)benzenesulphonic acid, Sigma) to a formazan dye by mitochondrial dehydrogenases. The dye is formed only by metabolically active cells. Its photometrically measurable intensity is a quantitative indicator for the presence of living cells. The reduction in the dye formation as a result of incubation of the cells with substances serves as a parameter for the anti-proliferative activity.
(§2) The tumour cell lines (ATCC) were seeded in 96-well microtitre plates in a defined cell count (5000 cells/well for Hct116; 10000 cells/well for MDA MB468), and incubated overnight at 37° C., 5% CO2 and 95% air humidity. The test substances were made up as stock solutions (10 mM) in DMSO. […] The cell plates were then incubated for 45 h at 37° C., 5% CO2 and 95% air humidity.
(§3) For the detection reaction, the XTT substrate was mixed with PMS (N-methyldibenzopyrazine methylsulphate, Sigma) and added to the cells, to result in a final concentration of 325 μg of XTT/ml and 2.5 μg PMS/ml. The mixture was then incubated for 3 h at 37° C., 95% air humidity. Subsequently the formazan salt formed by cellular dehydrogenases was quantified at an absorption of 490 nm.
(§4) The evaluation of the % inhibition values was done by means of the following formula from the values for the optical densities measured in each case at 490 nm:
(§5) The controls were determined 8 fold, the substance samples 2 fold. 0% control contained no cells and the 100% control contained no test substance. The EC50 values were determined with GraphPadPrism.

Hct116 = assay: XTT assay, anti-proliferative activity, Hct116; type: cell-based; settings: Homo sapiens, HCT-116; 45 h incubation
Method: as §1, §2, §3, §4, §5

With `CCNC(=S)Nc1ccc2ncc(-c3cnn(C)c3)nc2n1` [Compound 113, 1-Ethyl-3-[3-(1-methyl-1H-pyrazol-4-yl)-pyrido[2,3-b]pyrazin-6-yl]-thiourea] the melting point was 242 °C, the EC50 (MDA-MB468) was < 5 µM and the EC50 (Hct116) was < 5 µM.
In the case of `CCNC(=O)Nc1ccc2ncc(Nc3cccc(OC)c3)nc2n1` [Compound 89, 1-Ethyl-3-[3-(3-methoxy-phenylamino)-pyrido[2,3-b]pyrazin-6-yl]-urea], the melting point is reported as 216 to 219 °C, the EC50 (MDA-MB468) is reported as < 5 µM and the EC50 (Hct116) is reported as < 5 µM.
With `CCNC(=S)Nc1ccc2ncc(Nc3ccccc3)nc2n1` [Compound 148, 1-Ethyl-3-(3-phenylamino-pyrido[2,3-b]pyrazin-6-yl)-thiourea] the melting point was 285 °C, the EC50 (MDA-MB468) was < 5 µM and the EC50 (Hct116) was < 10 µM.
With `CCNC(=S)Nc1ccc2ncc(Nc3ccc(C)cc3)nc2n1` [Compound 126, 1-Ethyl-3-(3-p-tolylamino-pyrido[2,3-b]pyrazin-6-yl)-thiourea] the melting point was 278 °C, the EC50 (MDA-MB468) was < 5 µM and the EC50 (Hct116) was < 5 µM.
For `CCNC(=S)Nc1ccc2ncc(Nc3ccc(O)c(OC)c3)nc2n1` [Compound 150, 1-Ethyl-3-[3-(4-hydroxy-3-methoxy-phenylamino)-pyrido[2,3-b]pyrazin-6-yl]-thiourea], the melting point was 269 °C, the EC50 (MDA-MB468) was < 5 µM and the EC50 (Hct116) was < 5 µM.
With `CCNC(=S)Nc1ccc2ncc(-c3cc(Cl)c(O)c(Cl)c3)nc2n1` [Compound 138, 1-[3-(3,5-Dichloro-4-hydroxy-phenyl)-pyrido[2,3-b]pyrazin-6-yl]-3-ethyl-thiourea] the EC50 (MDA-MB468) was < 10 µM and the EC50 (Hct116) was < 10 µM.
With `CCNC(=O)Nc1ccc2ncc(-c3cccs3)nc2n1` [Compound 152, 1-Ethyl-3-(3-thiophen-2-yl-pyrido[2,3-b]pyrazin-6-yl)-urea] the melting point was 227 to 228 °C, the EC50 (MDA-MB468) was < 10 µM and the EC50 (Hct116) was < 10 µM.
With `CCNC(=S)Nc1ccc2ncc(-c3cc(OC)c(OC)c(OC)c3)nc2n1` [Compound 134, 1-Ethyl-3-[3-(3,4,5-trimethoxy-phenyl)-pyrido[2,3-b]pyrazin-6-yl]-thiourea] the melting point was 230 °C, the EC50 (MDA-MB468) was < 5 µM and the EC50 (Hct116) was < 5 µM.
In the case of `CCNC(=S)Nc1ccc2ncc(Nc3ccccc3OC)nc2n1` [Compound 332, 1-Ethyl-3-[3-(2-methoxy-phenylamino)-pyrido[2,3-b]pyrazin-6-yl]-thiourea], the melting point is reported as 232 °C.
For `CCNC(=O)Nc1cnc2ccc(-c3ccc(OC)c(OC)c3)nc2n1` [Compound 22, 1-[6-(3,4-Dimethoxy-phenyl)-pyrido[2,3-b]pyrazin-3-yl]-3-ethyl-urea], the melting point was > 235 °C.
With `CCCCCNC(=S)Nc1ccc2ncc(Nc3cc(OC)c(OC)c(OC)c3)nc2n1` [Compound 702, 1-Pentyl-3-[3-(3,4,5-trimethoxy-phenylamino)-pyrido[2,3-b]pyrazin-6-yl]-thiourea] the melting point was 210 °C.
Work on `CCNC(=S)Nc1ccc2ncc(Nc3ccc(-n4cncn4)cc3)nc2n1` [Compound 164, 1-Ethyl-3-[3-(4-[1,2,4]triazol-1-yl-phenylamino)-pyrido[2,3-b]pyrazin-6-yl]-thiourea] yielded a melting point of 294 °C.
With `COc1cc(-c2ccc3ncc(NC(=O)NC4CCCCC4)nc3n2)ccc1O` [Compound 17, 1-Cyclohexyl-3-[6-(4-hydroxy-3-methoxy-phenyl)-pyrido[2,3-b]pyrazin-3-yl]-urea] the melting point was 232 to 235 °C.
Work on `CCNC(=O)Nc1ccc2ncc(Nc3ccc(Cl)c(C(=O)O)c3)nc2n1` [Compound 434, 2-Chloro-5-[6-(3-ethyl-ureido)-pyrido[2,3-b]pyrazin-3-ylamino]-benzoic acid] yielded a melting point of 324 to 329 °C.
For `CCNC(=S)Nc1cnc2ccc(Nc3ccc(C4(C#N)CCCC4)cc3)nc2n1` [Compound 257, 1-{6-[4-(1-Cyano-cyclopentyl)-phenylamino]-pyrido[2,3-b]pyrazin-3-yl}-3-ethyl-thiourea], the melting point was 216 °C.
Molecule `CCNC(=O)Nc1cnc2ccc(N3CCOCC3)nc2n1` [Compound 225, 1-Ethyl-3-(6-morpholin-4-yl-pyrido[2,3-b]pyrazin-3-yl)-urea] has a melting point of 243 to 245 °C.
With `CCNC(=O)Nc1ccc2ncc(-c3ccc(Cl)cc3)nc2n1` [Compound 122, 1-[3-(4-Chloro-phenyl)-pyrido[2,3-b]pyrazin-6-yl]-3-ethyl-urea] the melting point was 244 to 247 °C.
For `CCNC(=O)Nc1ccc2ncc(-c3cccc(SC)c3)nc2n1` [Compound 117, 1-Ethyl-3-[3-(3-methylsulfanyl-phenyl)-pyrido[2,3-b]pyrazin-6-yl]-urea], the melting point was 221 to 224 °C.
In the case of `Cc1cc(-c2ccc3ncc(NC(=O)NC4CCN(C(=O)C(F)(F)F)CC4)nc3n2)cc(C)c1O` [Compound 589], the melting point is reported as 251 to 253 °C.
`CNC(=O)Nc1cnc2ccc(-c3cc(Cl)c(O)c(Cl)c3)nc2n1` [Compound 557, 1-[6-(3,5-Dichloro-4-hydroxy-phenyl)-pyrido[2,3-b]pyrazin-3-yl]-3-methyl-urea] showed a melting point of 247 to 249 °C.
With `CCNC(=S)Nc1ccc2ncc(-c3ccc(N)c(OC)c3)nc2n1` [Compound 140, 1-[3-(4-Amino-3-methoxy-phenyl)-pyrido[2,3-b]pyrazin-6-yl]-3-ethyl-thiourea] the EC50 (MDA-MB468) was < 5 µM and the EC50 (Hct116) was < 5 µM.
`CCNC(=O)Nc1ccc2ncc(-c3ccccc3Cl)nc2n1` [Compound 104, 1-[3-(2-Chloro-phenyl)-pyrido[2,3-b]pyrazin-6-yl]-3-ethyl-urea] showed a melting point of 310 °C.
Work on `CCNC(=O)Nc1ccc2ncc(-c3ccccc3F)nc2n1` [Compound 103, 1-Ethyl-3-[3-(2-fluoro-phenyl)-pyrido[2,3-b]pyrazin-6-yl]-urea] yielded a melting point of 226 to 228 °C.
In the case of `CCNC(=S)Nc1ccc2ncc(Nc3ccc(O)c(C)c3)nc2n1` [Compound 331, 1-Ethyl-3-[3-(4-hydroxy-3-methyl-phenylamino)-pyrido[2,3-b]pyrazin-6-yl]-thiourea], the melting point is reported as 258 °C.
